Source: patent US11760722B2 (priority 2022, dated 2023)
pEC50: −log10 of the molar value. Values joined by “and” are separate entries in the source; they are usually repeats but may differ in a detail not shown here. Identical values can stand only once. Like-named read-outs stand apart in the source and are kept apart here.

Experiments:
SARS-CoV-2 replicon = assay: microbe, parasite or virus in culture; type: cell-based; settings: read-out: Replicon EC50
[1] = test system: human coronavirus (HCoV) 229E; assay: microbe, parasite or virus in culture; type: cell-based, human coronavirus 229E; settings: MRCS cells, HCoV 229E, 3 days, CellTiter Glo, read-out: 229E CPE EC50
Description: Test compounds were provided by the sponsor. Reference compound remdesivir was provided by WuXi AppTec. Compounds were assayed at 8 concentrations (to be defined by sponsor), in duplicate wells.
MRCS cells were obtained from the ATCC, and maintained in the Minimum Essential Medium supplemented with 10% FBS, 1% L-glutamine, 1% NEAA and 1% penicillin-streptomycin. Minimum Essential Medium supplemented with 5% FBS, 1% L-glutamine, 1% NEAA and 1% penicillin-streptomycin was used as the assay medium.
Cells were seeded in 96 well plates, in 100 μl per well of assay medium, and cultured at 37° C. and 5% CO2 overnight. Next day, test compound was diluted with assay medium and then added into the cells, 50 μl per well. Then 50 μl per well of assay medium diluted virus was added. The final volume of the cell culture was 200 μl per well. […] The CPE were measured by CellTiter Glo following the manufacturer's manual. The antiviral activity of compounds was calculated based on the protection of the virus-induced CPE at each concentration normalized by the virus control.
EC50 and CC50 values were calculated using the GraphPad Prism software using the nonlinear regression model of log(inhibitor) vs. response—Variable slope (four parameters).

[2] = Severe acute respiratory syndrome coronavirus 2, Huh-7, 24 h
[3] = unidentified human coronavirus, 72 h

SMILES	pEC50 (SARS-CoV-2 replicon; [2])	pEC50 (SARS-CoV-2 replicon)	pEC50 [1]	pEC50 [1, 3]
CC(C)(C)[C@H](NS(=O)(=O)c1cc2c(s1)CCCC2)C(=O)N1C[C@H]2[C@@H]([C@H]1C(=O)N[C@H](C#N)C[C@@H]1CCNC1=O)C2(C)C [Compound 135]	7.62	7.47	7.17	7.19
CC(C)(C)[C@H](NC(=O)C(F)(F)Cl)C(=O)N1C[C@H]2[C@@H]([C@H]1C(=O)N[C@H](C#N)C[C@@H]1CCNC1=O)C2(C)C [Compound 141]	8.32	8.15	–	7.17
CC(C)(C)[C@H](NC(=S)Nc1ccccc1)C(=O)N1C[C@H]2[C@@H]([C@H]1C(=O)N[C@H](C#N)C[C@@H]1CCNC1=O)C2(C)C [Compound 74]	6.31	–	–	4.94
CC(C)(C)[C@H](NS(=O)(=O)CC#N)C(=O)N1C[C@H]2[C@@H]([C@H]1C(=O)N[C@H](C#N)C[C@@H]1CCNC1=O)C2(C)C [Compound 132]	7.19	7.12	6.23	6.23
CC(C)(C)[C@H](NS(=O)(=O)c1ccc(Cl)s1)C(=O)N1C[C@H]2[C@@H]([C@H]1C(=O)N[C@H](C#N)C[C@@H]1CCNC1=O)C2(C)C [Compound 54]	7.27	7.24	6.90	6.97
CC(C)(C)[C@H](NS(=O)(=O)c1cccc(F)c1)C(=O)N1C[C@H]2[C@@H]([C@H]1C(=O)N[C@H](C#N)C[C@@H]1CCNC1=O)C2(C)C [Compound 79]	7.09	6.85	6.58	6.59
C=CCS(=O)(=O)N[C@H](C(=O)N1C[C@H]2[C@@H]([C@H]1C(=O)N[C@H](C#N)C[C@@H]1CCNC1=O)C2(C)C)C(C)(C)C [Compound 131]	6.92	6.74	–	6.18
CC1(C)[C@@H]2[C@@H](C(=O)N[C@H](C#N)C[C@@H]3CCNC3=O)N(C(=O)[C@@H](NC(=O)C(F)(F)F)C34CC(C(F)(F)F)(C3)C4)C[C@@H]21 [Compound 91]	6.48	–	–	4.96
CC(C)(C)[C@H](NC(=S)NC1CCC1)C(=O)N1C[C@H]2[C@@H]([C@H]1C(=O)N[C@H](C#N)C[C@@H]1CCN(C(=O)C(F)(F)F)C1=O)C2(C)C [Compound 125]	7.17	–	–	6.15
CC(C)(C)[C@H](NS(=O)(=O)c1ccc(C(F)(F)F)cc1)C(=O)N1C[C@H]2[C@@H]([C@H]1C(=O)N[C@H](C#N)C[C@@H]1CCNC1=O)C2(C)C [Compound 90]	–	7.17 and 7.12	6.41	6.60
CN(C)[C@@H]1C[C@@H](C(=O)N[C@H](C#N)C[C@@H]2CCNC2=O)N(C(=O)[C@@H](NC(=O)C(F)(F)F)C(C)(C)C)C1 [Compound 116]	6.13	–	–	< 4.52
CNC(=O)N[C@H](C(=O)N1C[C@H](N(C)C)C[C@H]1C(=O)N[C@H](C#N)C[C@@H]1CCNC1=O)C(C)(C)C [Compound 128]	< 5.00	–	–	< 4.52
Cn1c(C(=O)N[C@H](C(=O)N2C[C@H]3[C@@H]([C@H]2C(=O)N[C@H](C#N)C[C@@H]2CCNC2=O)C3(C)C)C(C)(C)C)cc2ccccc21 [Compound 27]	6.02	–	–	6.02
CN(C)C(=S)N[C@H](C(=O)N1C[C@H]2[C@@H]([C@H]1C(=O)N[C@H](C#N)C[C@@H]1CCNC1=O)C2(C)C)C(C)(C)C [Compound 77]	5.39	–	–	4.67
CC(C)(C)[C@H](NC(=O)CCC(F)(F)F)C(=O)N1C[C@H]2[C@@H]([C@H]1C(=O)N[C@H](C#N)C[C@@H]1CCNC1=O)C2(C)C [Compound 138]	6.48	6.30	–	6.21
CC(C)(C)[C@H](NS(=O)(=O)c1ccns1)C(=O)N1C[C@H]2[C@@H]([C@H]1C(=O)N[C@H](C#N)C[C@@H]1CCNC1=O)C2(C)C [Compound 122]	7.33	7.21	–	6.83
CC(C)(C)[C@H](NC(=O)C(F)C(F)(F)F)C(=O)N1C[C@H]2[C@@H]([C@H]1C(=O)N[C@H](C#N)C[C@@H]1CCNC1=O)C2(C)C (stereo partly shown) [Compound 159]	7.52	–	–	6.87
COc1ccccc1S(=O)(=O)N[C@H](C(=O)N1C[C@H]2[C@@H]([C@H]1C(=O)N[C@H](C#N)C[C@@H]1CCNC1=O)C2(C)C)C(C)(C)C [Compound 130]	7.03	6.89	5.91	5.96
CC(C)(C)[C@H](NC(=O)C1(C(F)(F)F)CC1)C(=O)N1C[C@H]2[C@@H]([C@H]1C(=O)N[C@H](C#N)C[C@@H]1CCNC1=O)C2(C)C [Compound 151]	7.07	–	–	6.68
CC(C)(C)[C@H](NC(=O)C(F)(F)C(F)(F)Cl)C(=O)N1C[C@H]2[C@@H]([C@H]1C(=O)N[C@H](C#N)C[C@@H]1CCNC1=O)C2(C)C [Compound 80]	8.19	7.89	6.94	7.04

SMILES	pEC50 (SARS-CoV-2 replicon; [2])	pEC50 (SARS-CoV-2 replicon)	pEC50 [1]	pEC50 [1, 3]
CC(C)(C)[C@H](NC(=O)CC(F)(F)F)C(=O)N1C[C@H]2[C@@H]([C@H]1C(=O)N[C@H](C#N)C[C@@H]1CCNC1=O)C2(C)C [Compound 161]	6.74	–	–	6.23
COC(=O)N[C@H](C(=O)N1C[C@H](N(C)C)C[C@H]1C(=O)N[C@H](C#N)C[C@@H]1CCNC1=O)C(C)(C)C [Compound 129]	5.16	–	–	< 4.52
CC(C)(C)NC(=O)N[C@H](C(=O)N1C[C@H]2[C@@H]([C@H]1C(=O)N[C@H](C#N)C[C@@H]1CCNC1=O)C2(C)C)C(C)(C)C [Compound 87]	6.35	6.10	4.85	5.04
CC(C)(C)[C@H](NC(=O)c1cnc2[nH]ccc2c1)C(=O)N1C[C@H]2[C@@H]([C@H]1C(=O)N[C@H](C#N)C[C@@H]1CCNC1=O)C2(C)C [Compound 32]	5.50	–	–	4.88
CC(C#N)C(=O)N[C@H](C(=O)N1C[C@H]2[C@@H]([C@H]1C(=O)N[C@H](C#N)C[C@@H]1CCNC1=O)C2(C)C)C(C)(C)C (stereo partly shown) [Compound 88]	6.72	6.60	5.34	5.60
CNC(=S)N[C@@H](CC1CCC1)C(=O)N1C[C@H]2[C@@H]([C@H]1C(=O)N[C@H](C#N)C[C@@H]1CCNC1=O)C2(C)C [Compound 78]	5.73	–	–	4.90
CC(C)(C)[C@H](NC(=O)c1ccccn1)C(=O)N1C[C@H]2[C@@H]([C@H]1C(=O)N[C@H](C#N)C[C@@H]1CCNC1=O)C2(C)C [Compound 107]	5.42	–	–	4.63
Cc1cc(S(=O)(=O)N[C@H](C(=O)N2C[C@H]3[C@@H]([C@H]2C(=O)N[C@H](C#N)C[C@@H]2CCNC2=O)C3(C)C)C(C)(C)C)sc1C [Compound 169]	7.43	–	–	6.79
COc1ccc(S(=O)(=O)N[C@H](C(=O)N2C[C@H]3[C@@H]([C@H]2C(=O)N[C@H](C#N)C[C@@H]2CCNC2=O)C3(C)C)C(C)(C)C)cc1 [Compound 101]	7.62	7.39	6.04	6.29
CC1(NC(=S)N[C@H](C(=O)N2C[C@H]3[C@@H]([C@H]2C(=O)N[C@H](C#N)C[C@@H]2CCNC2=O)C3(C)C)C(C)(C)C)CC1 [Compound 126]	7.62	–	–	6.71
CC(C)(C)[C@H](NS(=O)(=O)c1cc2ccccc2s1)C(=O)N1C[C@H]2[C@@H]([C@H]1C(=O)N[C@H](C#N)C[C@@H]1CCNC1=O)C2(C)C [Compound 111]	8.47	8.34	–	6.89
CCc1ccc(S(=O)(=O)N[C@H](C(=O)N2C[C@H]3[C@@H]([C@H]2C(=O)N[C@H](C#N)C[C@@H]2CCNC2=O)C3(C)C)C(C)(C)C)s1 [Compound 170]	7.42	–	–	6.85
CC(C)(C)[C@H](NC(=O)C12CC(C1)C2)C(=O)N1C[C@H]2[C@@H]([C@H]1C(=O)N[C@H](C#N)C[C@@H]1CCNC1=O)C2(C)C [Compound 20]	6.73	6.63	–	5.56
CC(C)(C)[C@H](NC(=O)c1ccc(F)c(F)c1)C(=O)N1C[C@H]2[C@@H]([C@H]1C(=O)N[C@H](C#N)C[C@@H]1CCNC1=O)C2(C)C [Compound 108]	6.48	–	–	5.41
CC(C)c1cc(C(C)C)c(S(=O)(=O)N[C@H](C(=O)N2C[C@H]3[C@@H]([C@H]2C(=O)N[C@H](C#N)C[C@@H]2CCNC2=O)C3(C)C)C(C)(C)C)c(C(C)C)c1 [Compound 134]	5.10	< 5.00	–	< 4.52
CC(C)(C)[C@H](NS(=O)(=O)c1ccc(OC(F)(F)F)cc1)C(=O)N1C[C@H]2[C@@H]([C@H]1C(=O)N[C@H](C#N)C[C@@H]1CCNC1=O)C2(C)C [Compound 89]	6.85	6.80	6.33	6.49
Cc1ccc(S(=O)(=O)N(C(=O)C(F)(F)F)[C@H](C(=O)N2C[C@H]3[C@@H]([C@H]2C(=O)N[C@H](C#N)C[C@@H]2CCNC2=O)C3(C)C)C(C)(C)C)cc1 [Compound 167]	7.70	–	–	6.92
CC(C)(C)[C@H](NC(=O)/C(F)=C(\F)C(F)(C(F)(F)F)C(F)(F)F)C(=O)N1C[C@H]2[C@@H]([C@H]1C(=O)N[C@H](C#N)C[C@@H]1CCNC1=O)C2(C)C [Compound 163]	< 5.00	–	–	5.33
CC(C)(C)[C@H](NC(=O)c1ccc(F)cc1)C(=O)N1C[C@H]2[C@@H]([C@H]1C(=O)N[C@H](C#N)C[C@@H]1CCNC1=O)C2(C)C [Compound 94]	6.02	–	–	5.37
